Test: Delivered dose study (unit spray collection apparatus, USCA)
Format: physicochemical
Protocol: Metered dose inhalers (MDIs) were prepared using deep drawn aluminum canisters (3M Corporation, Cltheroe, UK), 50 microliter Bespak PBT (polybutylene terephthalate) valves (BK0514719, Bespak Europe Ltd, Bergen Way, King's Lynn, Norfolk, PE30 2JJ) fitted with EPDM (ethylene-propylene diene terpolymer elastomer) diaphragm seals, and an Mk6 P&B actuator. The internal surface of each canister was coated with FEP (fluorinated ethylene propylene copolymer). The bulk formulation for cold filling individual canisters can be prepared by first admixing citric acid and the ethanol, and then adding the tiotropium bromide to the citric acid and ethanol mixture. HFA-134a propellant was then added to a separate batching vessel, and the mixture of tiotropium bromide, citric acid, and ethanol was then added be to the HFA-134a. The formulation was mixed at −50° C. The metered dose inhalers made according to Table 1 were designed to deliver 5 micrograms of Tiotropium (free base) per actuation.
The start of unit life delivered dose was determined using standard unit spray collection apparatus (USCA) fitted with a filter. For each determination, an MDI was attached to the USCA using a coupler and actuated a single time. Immediately prior to attachment, the MDI was shaken. Prior to collection of the test sample, the MDI was primed by actuating four times. Prior to each priming shot the MDI was shaken.

Question: For C[N+]1(C)[C@@H]2C[C@@H](OC(=O)C(O)(c3cccs3)c3cccs3)C[C@H]1[C@@H]1O[C@@H]12 [tiotropium bromide], which “Start of life dose content uniformity” value (MDI with Table 1 formulation (0.1204 mg/ml tiotropium bromide, 0.04 wt. % citric acid, 15 wt. % ethanol, HFA-134a; FEP can), primed by actuating four times, single actuation, FIG. 5) is on record?
Answer: The value was 4.3 mcg/actuation.

Question: What about the “uniformity of dose delivered on storage” value (MDI with Table 1 formulation, on storage, FIG. 7) of the same compound?
Answer: Its value is “remained constant on storage”.

Source: patent US12220525B2, “Tiotropium formulation and inhaler” (KINDEVA DRUG DELIVERY L.P., priority 2018, dated 2025)
